Patent US10067145B2, “Method for removing genomically unstable IPS cells and synthetic peptide used therefor” (TOAGOSEI CO., LTD., priority 2013, dated 2018)
No end group written: not given here.

Key:
[1] = system: human iPS cell strain 201B7; assay: Evaluation of calreticulin expression inducing activity of synthetic peptides (immunofluorescence antibody assay), genomically stable iPS cells; assay type: cell-based; conditions: peptide 10 μM in mTeSR 1 medium, 5 days, medium replaced every day; anti-calreticulin antibody, confocal laser microscope
Description: (§1) In the following Examples, iPS cells were used as an example of pluripotent stem cells. Specifically, cells used for tests were a genomically stable (specifically without a chromosome aberration) human iPS cell strain (clone: 201B7, hereinafter also merely referred to as 201B7) and a human iPS cell strain (clone: 201B2 hereinafter also merely referred to as 201B2) containing genomically unstable (specifically, chromosome 12 is triploid (trisomy)) cells. Both 201B7 and 201B2 are clones of iPS cells established from the same human fibroblasts (source: Takahashi K et al., Cell, 131, 861-872 (2007)). The iPS cells were provided by the Center for iPS Cell Research and Application, Kyoto University. […]
(§2) A primary antibody diluted solution prepared by adjusting a primary antibody, an anti-calreticulin monoclonal [FMC75] antibody (murine, available from Abeam, Cat No. ab22683, Lot No. GR56669-4), to a final concentration of 4×10^−3 mg/mL in 1% BSA/PBS (−) (PBS (−) containing 1% BSA) was added to the culture vessel of the iPS cells, and the mixture was left to stand overnight at 4° C. or 2 hours at room temperature. […] Thereafter, mounting was carried out with a DAPI (4′,6-diamidino-2-phenylindole)-containing mounting medium (available from Life Technologies) and a cover glass and fluorescence was observed under a confocal laser microscope. […]

[2] = system: human iPS cell strain 201B2 (chromosome 12 trisomy); assay: Evaluation of calreticulin expression inducing activity of synthetic peptides (immunofluorescence antibody assay), genomically unstable iPS cells; assay type: cell-based; conditions: peptide 10 μM in mTeSR 1 medium, 5 days, medium replaced every day; anti-calreticulin antibody, confocal laser microscope
Description: as §1, §2

KKRTLRKNDRKKR GG CRAKAGDPC (KKRTLRKNDRKKRGGCRAKAGDPC-NH2; cysteine pairing not given here) [sample 1, linear synthetic calreticulin expression inducing peptide, 24 residues]
expression level of calreticulin in 201B7 (fluorescence of the label detecting calreticulin) compared to cells without addition of peptides [1]: almost no increase
expression level of calreticulin in 201B2 (fluorescence of the label detecting calreticulin) compared to cells without addition of peptides [2]: significantly increased
